pIC50: −log10 of the molar value. Read-outs that look alike come from different tables or passages of the source.

For experiment [1], the target named is CDK-2 enzyme, complexed with cyclin A (Homo sapiens, UniProt P24941). The experiment is described as follows: CDK2 enzyme inhibition assay (33P phosphorylation of peptide […], filter plate). The note with it: CDK-2/cyclin A, 0.1 mM ATP, 40 min at 30° C. In kind it is biochemical. In a few lines: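 Cyclin A–complexed CDK2 (0.4 U/ml) incubated with inhibitor, 0.03 mM peptide, 0.1 mM ATP plus 33P-γ-ATP in HEPES pH 7.5, 7.5 mM Mg acetate, 0.1 mg/ml BSA, 40 min at 30 °C. Stopped with phosphoric acid; phosphorylated peptide captured on filter plates and counted by scintillation.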

Experiment [2] concerns the target T1, GST-Chk1 enzyme (Homo sapiens, UniProt O14757).
T1 sequence (O14757 1-476): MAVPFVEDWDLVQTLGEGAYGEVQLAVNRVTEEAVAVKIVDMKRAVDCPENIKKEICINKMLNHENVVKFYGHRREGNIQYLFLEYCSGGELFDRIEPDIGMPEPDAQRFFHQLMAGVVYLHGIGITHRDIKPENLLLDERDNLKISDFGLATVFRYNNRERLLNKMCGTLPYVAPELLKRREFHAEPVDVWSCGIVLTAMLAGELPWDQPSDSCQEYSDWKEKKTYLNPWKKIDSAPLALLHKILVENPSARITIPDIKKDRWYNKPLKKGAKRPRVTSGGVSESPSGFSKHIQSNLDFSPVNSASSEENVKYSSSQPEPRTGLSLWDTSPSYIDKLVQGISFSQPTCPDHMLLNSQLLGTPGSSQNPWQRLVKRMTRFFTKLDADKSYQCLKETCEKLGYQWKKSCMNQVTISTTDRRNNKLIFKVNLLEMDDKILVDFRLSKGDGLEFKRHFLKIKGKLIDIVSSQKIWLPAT
Kind of experiment: Chk1 kinase inhibition assay (33P phosphorylation of Chktide, filter plate). It counts as biochemical. The note with it: 0.01 mM ATP, 11 nM GST-Chk1, 40 minutes at 30° C.; read-out: Chk1 IC50. The gist of the method:
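Inhibitor and enzyme reacted 40 min at 30 °C, then stopped with 50 mM phosphoric acid. Phosphorylated peptide captured on filter plates and quantified by scintillation counting.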

In experiment [3] the target is T2, PDK1 enzyme (Homo sapiens, UniProt O15530).
T2 sequence (O15530 1-556): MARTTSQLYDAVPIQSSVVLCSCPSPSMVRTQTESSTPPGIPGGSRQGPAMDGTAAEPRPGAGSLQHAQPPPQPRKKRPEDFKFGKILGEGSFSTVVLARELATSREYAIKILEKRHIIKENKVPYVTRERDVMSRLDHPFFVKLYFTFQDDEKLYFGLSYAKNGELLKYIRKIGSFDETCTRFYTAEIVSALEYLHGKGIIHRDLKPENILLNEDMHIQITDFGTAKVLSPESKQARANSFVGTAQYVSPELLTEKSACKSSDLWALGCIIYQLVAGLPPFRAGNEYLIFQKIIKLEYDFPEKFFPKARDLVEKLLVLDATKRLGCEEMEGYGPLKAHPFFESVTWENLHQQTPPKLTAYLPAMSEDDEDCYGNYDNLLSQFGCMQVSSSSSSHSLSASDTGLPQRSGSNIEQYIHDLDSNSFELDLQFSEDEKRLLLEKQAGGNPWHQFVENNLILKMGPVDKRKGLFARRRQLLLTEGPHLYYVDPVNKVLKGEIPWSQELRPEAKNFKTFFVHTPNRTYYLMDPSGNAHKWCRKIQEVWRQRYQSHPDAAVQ
The experiment is described as follows: PDK1 kinase inhibition assay (33P phosphorylation of synthetic peptide, filter plate). In kind it is biochemical. The note with it: 0.01 mM ATP, 60 min at 30° C.; read-out: PDK1 IC50. In a few lines:
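PDK1 and inhibitor incubated 60 min at 30° C with 0.01 mM ATP plus 33P-γ-ATP, 0.075 mM peptide, 7.5 mM Mg acetate, 0.1 mg/ml BSA in 0.05 M Tris.HCl pH 7.5. Stopped with phosphoric acid; phosphorylated peptide captured on filter plate and counted by scintillation.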

The nature of experiment [4]: Cell growth inhibition assay: cytotoxicity by sulforhodamine B (SRB) assay. In kind it is cell-based. As to conditions: 96 h. The method, then: B. Cell Growth Inhibition Assay:
• 1) Determine cell number by haemocytometer. • 2) Using an 8 channel multipipettor, add 160 μl of the cell suspension ([…] or 2×10^4 cells/ml) to each well of a 96-well microtitre plate. • 3) Incubate overnight at 37° C. in a CO2 incubator. Day 2 • 4) Stock solutions of drugs are prepared, and serial dilutions of each drug are performed in medium to give final concentrations in wells. • 5) Using a multipipettor, 40 μl of drug (at 5× final concentration) is added to quadruplicate wells. • 6) Control wells are at either side of the 96 well plates, where 40 μl of medium is added. • 7) Incubate plates in CO2 incubator for 4 days Day 6 • 8) Tip off medium into sink and immerse plate slowly into 10% ice cold trichloroacetic acid (TCA). Leave for about 30 mins on ice. • 9) Wash plates three times in tap water by immersing the plates into baths of tap water and tipping it off. • 10) Dry in incubator. • 11) Add 100 μl of 0.4% SRB in 1% acetic acid to each well (except the last row right hand)of the 96 well plate, this is the 0% control, ie no drug, no stain. The first row will be the 100% control with no drug, but with stain). Leave for 5 mins. • 12) Wash off unbound SRB stain with four washes of 1% acetic acid. • 13) Dry plates in incubator. • 14) Solubilise SRB using 100 μl of 10 mM Tris base and put plates on plate shaker for 5 mins. • 15) Determine absorbance at 540 nm using a plate reader. Calculate mean absorbance for quadruplicate wells and express as a percentage of value for control, untreated wells.
Plot % absorbance values versus log drug concentration and determine the IC50.

Where [5] appears, read: SRB assay, 4 days with drug, cell line not named, read-out: GI50.

As to `CC(C)c1cnn2c(Nc3ccc(S(=O)(=O)N(C)C)cc3)cc(N[C@H]3CC[C@H](NC(N)=O)CC3)nc12` [Example 141], the pIC50 in experiment [1] is 6.85; in experiment [2] it was 4.89; in experiment [3], 5.05.
For `NC(=O)c1ccc(Nc2cc(Cl)nc3c(Br)cnn23)cc1` [Example 145], in that order: 7.10, 4.96 and under 4.30.
`CCN[C@H]1CC[C@H](Nc2cc(Nc3ccc(S(=O)(=O)N(C)C)cc3)n3ncc(C(C)C)c3n2)CC1` [Example 147]: the pIC50 was 7.01 in experiment [1], 5.40 in experiment [2] and 5.00 in experiment [3]. The same compound showed a GI50 in experiment [4] of 1 µM.
With `CN(C)S(=O)(=O)c1ccc(Nc2cc(N[C@H]3CC[C@H](N)CC3)nc3c(Cl)cnn23)cc1` [Example 148], the pIC50 was 8.40 in experiment [1], 5.70 in experiment [2] and 5.81 in experiment [3].
`CCc1cnn2c(Nc3ccc(C(N)=O)cc3)cc(Cl)nc12` [Example 149]: the figures for the pIC50 in experiment [1], in experiment [2] and in experiment [3] were 6.85, 5.00 and 4.24, respectively.
For `CC(C)c1cnn2c(Nc3ccc(S(=O)(=O)N(C)C)cc3)cc(NC3CCC(N)C3)nc12` (stereo not shown) [Example 150], in that order: 6.32, 5.70 and 4.89.
For `CN(C)S(=O)(=O)c1ccc(Nc2cc(N[C@H]3CC[C@H](N)CC3)nc3c(-c4ccsc4)cnn23)cc1` [Example 154], in that order: 5.85, 6.20 and under 3.70.
With `CN(C)S(=O)(=O)c1ccc(Nc2cc(Cl)nc3c(-c4ccsc4)cnn23)cc1` [Example 156], the pIC50 is 4.60 in experiment [1], under 3.70 in experiment [2] and 5.00 in experiment [3].
For `CC(C)c1cnn2c(Nc3ccc(S(=O)(=O)N(C)C)cc3)cc(CN3CCC(N)CC3)nc12` [Example 157], in that order: 7.43, 5.10 and 4.14.
For `CC(C)c1cnn2c(Nc3ccc(S(=O)(=O)N(C)C)cc3)cc(N[C@H]3CC[C@H](N(C)C)CC3)nc12` [Example 162] the same measures were 6.09, 4.92 and 5.30.
For `CN(C)S(=O)(=O)c1ccc(Nc2cc(N[C@H]3CC[C@H](N)CC3)nc3c(-c4ccccc4)cnn23)cc1` [Example 163], in that order: 5.00, 5.82 and 5.22.
As for `CS(=O)(=O)c1ccc(Nc2cc(N[C@H]3CC[C@@H](N)CC3)nc3c(Br)cnn23)cc1` [Example 164], the pIC50 in experiment [1] was 6.65; in experiment [2], 6.60; in experiment [3] it was 5.33.
For `NC(=O)c1ccc(Nc2cc(N[C@H]3CC[C@@H](N)CC3)nc3c(Br)cnn23)cc1` [Example 165], in that order: 7.59, 6.21 and 5.92.
For `CC1(C)CC(Nc2cc(Nc3ccc(S(=O)(=O)Nc4nccs4)cc3)n3ncc(Br)c3n2)CC(C)(C)N1` [Example 166] the same measures were 4.77, 4.77 and 5.67.
Regarding `CN(C)S(=O)(=O)c1ccc(Nc2cc(N[C@H]3CC[C@H](N)CC3)nc3c(C4CCCC4)cnn23)cc1` [Example 167], the pIC50 in experiment [1] was 8.40; in experiment [2], 6.14; in experiment [3] it was 3.77.
With `CN(C)S(=O)(=O)c1ccc(Nc2cc(O[C@H]3CC[C@H](N)CC3)nc3c(Cl)cnn23)cc1` [Example 168], the pIC50 in experiment [1] was 7.85; in experiment [2] it was 5.30; in experiment [3], 4.82. Also, in experiment [4] (setting [5]), the GI50 is 0.21 µM.
On to `CCc1cnn2c(Nc3ccc(S(C)(=O)=O)cc3)cc(N[C@H]3CC[C@@H](N)CC3)nc12` [Example 173], for which the pIC50 was 5.66 in experiment [1], 5.40 in experiment [2] and 4.82 in experiment [3].
For `N[C@H]1CC[C@@H](Nc2cc(Nc3ccc(S(=O)(=O)N4CCCC4)cc3)n3ncc(Br)c3n2)CC1` [Example 178] the same measures were 6.82, 7.15 and 5.59.
With `CN(C)S(=O)(=O)c1ccc(Nc2cc(N[C@H]3CC[C@H](N)CC3)nc3c(Br)cnn23)cc1Cl` [Example 180], the figures for the negative logarithm of the IC50 (pIC50) in experiment [1], in experiment [2] and in experiment [3] were 8.70, 6.08 and 5.70, respectively. In experiment [4], this compound had a GI50 of 0.33 µM.
For the compound `N[C@H]1CC[C@H](Nc2cc(Nc3ccc(Oc4ccccc4)cc3)n3ncc(Br)c3n2)CC1` [Example 181], the pIC50 in experiment [1] was 7.00; in experiment [2] it was 6.00; in experiment [3], 3.96. In experiment [4] (setting [5]), the GI50 was determined as 0.09 µM.
Take `N[C@H]1CC[C@H](Nc2cc(Nc3ccc(Oc4ccccc4)cc3)n3ncc(Cl)c3n2)CC1` [Example 187]: the pIC50 in experiment [1] is 7.27; in experiment [2], 5.70; in experiment [3], 5.70.
For the compound `N[C@H]1CC[C@H](Nc2cc(Nc3ccc(Oc4cncc(Cl)c4)cc3)n3ncc(Cl)c3n2)CC1` [Example 191], the pIC50 in experiment [1] was 7.74. Moreover, in experiment [4] (setting [5]), the 50% growth inhibitory concentration (GI50) came out at 0.04 µM.
For the compound `N[C@H]1CC[C@H](Nc2cc(Nc3cccc(Cl)c3)n3ncc(Cl)c3n2)CC1` [Example 192], the figures for the pIC50 in experiment [1], in experiment [2] and in experiment [3] were 8.05, 5.67 and 5.49, respectively. Further, in experiment [4] (setting [5]), the GI50 was 0.2 µM.
Take `N[C@H]1CC[C@H](Nc2cc(Nc3ccc(Sc4cccs4)cc3)n3ncc(Cl)c3n2)CC1` [Example 193]: the pIC50 is 7.33 in experiment [1], 5.83 in experiment [2] and 5.54 in experiment [3].
Regarding `CC(C)c1cnn2c(Nc3ccc(S(=O)(=O)N(C)C)cc3)cc(N[C@H]3CCNC3)nc12` [Example 194], the pIC50 in experiment [1] was 7.14; in experiment [2], 6.68; in experiment [3], 5.35. Moreover, in experiment [4] (setting [5]), the GI50 is 0.59 µM.
Turning to `CN(C)S(=O)(=O)c1ccc(Nc2cc(O[C@H]3CCNC3)nc3c(Cl)cnn23)cc1` [Example 196], the pIC50 is 6.44 in experiment [1] and 5.38 in experiment [2]. Further, the GI50 in experiment [4] (setting [5]) is 1 µM.
The compound `CSc1cnn2c(Nc3ccc(S(=O)(=O)N(C)C)cc3)cc(N[C@H]3CC[C@H](N)CC3)nc12` [Example 197] had a pIC50 in experiment [1] of 7.26. In addition, the GI50 in experiment [4] (setting [5]) worked out at 0.58 µM.
In the case of `CN(C)S(=O)(=O)c1ccc(Nc2cc(N[C@H]3CC[C@H](N)CC3)nc3c(C#N)cnn23)cc1` [Example 199], the pIC50 in experiment [1] is 8.15; in experiment [2] it was 6.48; in experiment [3], 5.87.

For the origin of these results see US20070179161A1, “Pyrazolopyrimidine compounds and their use in medicine” (VERNALIS (CAMBRIDGE) LIMITED., priority 2003, published 2007).
